Measured values from publication PMC8305101, “Synthesis and Cytotoxicity Evaluation of Spirocyclic Bromotyrosine Clavatadine C Analogs” (Marine Drugs, 2021).
“And” between values parts separate entries of the source, which are not always exact repeats. Equal values may be shown once.

How the values were obtained:
[1] = system: human malignant melanoma A-375 cell line; assay: Cytotoxicity in A-375 melanoma cells (CellTiter-Glo ATP viability); type: cell-based; settings: for CC50 / cytotoxicity at 50 µM: Homo sapiens, A-375, 48 h; for CC50: read-out: CC50 (µM) in A-375 Cells; for cytotoxicity at 50 µM: read-out: Primary Test Results (Cytotoxicity % at 50 µM in A-375 Cells), 50 µM, A-375 cells, 48-h incubation, single experiment with three technical replicates; for Selectivity Index (SI): ratio of CC50 values between Hs27 fibroblasts and A-375 melanoma cells, SD in parentheses; for Primary Test Results (Cytotoxicity % at 50 µM in A-375 Cells): 48-h incubation, single experiment with three technical replicates
Protocol: (§1) Analysis of selectivity to cancer cells. The cells were seeded to white frame and clear bottom 96-well plates (Perkin Elmer) at a density of 10,000 cells/well for the human malignant melanoma A-375 cell line (ATCC CRL-1619) and 7500 cells/well for the human skin fibroblast Hs27 cell line (ATCC CRL-1634). The cells were grown at 37 °C, 5% CO2 until they reached 70–80% confluence (approximately 24 h). Stock solutions of test compounds and a positive control (camptothecin, Sigma-Aldrich, St. Louis, MO, USA) were prepared in DMSO and diluted into the assay medium (growth medium with 5% FBS) to the final concentration. Final DMSO concentration was 0.5% in all samples. The culture medium was removed from the plate and compounds added, 200 µL/well. After a 48-h incubation, the amount of ATP, which is directly proportional to the number of viable cells present in culture, was quantified using CellTiter-Glo® Luminescent Cell Viability kit (Promega, Madison, WI, USA), according to manufacturer’s instructions. Origin Graphing and Analysis, version 9.55 (OriginLab, Northampton, MA, USA), was used for determination of CC50 values. The cancer cell selectivity index was calculated as a ratio of CC50 values between Hs27 fibroblasts and A-375 melanoma cells. Standard deviation of selectivity indices was calculated using Equation (1) (1) σ(x¯/y¯)=(σ(x)/x¯)^2+(σ(y)/y¯)^2

[2] = Cytotoxicity in Hs27 normal skin fibroblasts (CellTiter-Glo ATP viability); type: cell-based; settings: human, 48-h incubation, mean (SD) of 2–3 independent experiments in triplicate, read-out: CC50 (µM) in Hs27 Cells
Protocol: as §1

| Compound | CC50 [1] | cytotoxicity at 50 µM [1] | Selectivity Index (SI) [1] | CC50 at 48 h [2] | Primary Test Results (Cytotoxicity % at 50 µM in A-375 Cells) [1] |
| --- | --- | --- | --- | --- | --- |
| O=C1C=CC2(C=C1)CC(C(=O)Nc1cc(Cl)cc(Cl)c1)=NO2 [Compound 18, N-(3,5-Dichlorophenyl)-8-oxo-1-oxa-2-azaspiro[4.5]deca-2,6,9-triene-3-carboxamide] | 0.4 µM | 100% | 2.0 (0.8) | 0.8 µM |  |
| CN(C)C(=O)C1=NOC2(C=CC(=O)C=C2)C1 [Compound 12, N,N-Dimethyl-8-oxo-1-oxa-2-azaspiro[4.5]deca-2,6,9-triene-3-carboxamide] | 2.1 µM | 95.1% | 1.8 (0.6) | 3.8 µM |  |
| CC(C)N(C)C(=O)C1=NOC2(C=C(Br)C(=O)C(Br)=C2)C1 [Compound 14, 7,9-Dibromo-N-isopropyl-N-methyl-8-oxo-1-oxa-2-azaspiro[4.5]deca-2,6,9-triene-3-carboxamide] | 7.2 µM | 99.9% |  | 7.8 µM |  |
| O=C(NCCc1cccnc1)C1=NOC2(C=C(Br)C(=O)C(Br)=C2)C1 [Compound 34, 7,9-Dibromo-8-oxo-N-[2-(pyridin-3-yl)ethyl]-1-oxa-2-azaspiro[4.5]deca-2,6,9-triene-3-carboxamide] | 5.1 µM | 97% | 1.7 (0.6) | 8.8 µM |  |
| O=C(Nc1nc2c(s1)CCCC2)C1=NOC2(C=C(Br)C(=O)C(Br)=C2)C1 [Compound 42, 7,9-Dibromo-8-oxo-N-(4,5,6,7-tetrahydrobenzo[d]thiazol-2-yl)-1-oxa-2-azaspiro[4.5]deca-2,6,9-triene-3-carboxamide] | 3.5 µM | 97.5% | 1.3 (0.5) | 4.4 µM |  |
| COc1ccc(CNC(=O)C2=NOC3(C=C(Br)C(=O)C(Br)=C3)C2)cc1 [Compound 24, 7,9-Dibromo-N-(4-methoxybenzyl)-8-oxo-1-oxa-2-azaspiro[4.5]deca-2,6,9-triene-3-carboxamide] | 3.5 µM | 97.8% | 0.9 (0.3) | 3.3 µM |  |
| Cn1nc(-c2ccc(Cl)cc2)cc1NC(=O)C1=NOC2(C=CC(=O)C=C2)C1 [Compound 40, N-[3-(4-Chlorophenyl)-1-methyl-1H-pyrazol-5-yl]-8-oxo-1-oxa-2-azaspiro[4.5]deca-2,6,9-triene-3-carboxamide] | 0.5 µM | 99.9% | 1.0 (0.8) | 0.5 µM |  |
| O=C1C=CC2(C=C1)CC(C(=O)NCc1cccnc1)=NO2 [Compound 35, 8-Oxo-N-(pyridin-3-ylmethyl)-1-oxa-2-azaspiro[4.5]deca-2,6,9-triene-3-carboxamide] | 1.1 µM | 97.5% | 2.3 (0.1) | 2.5 µM |  |
| O=C(Nc1ccccn1)C1=NOC2(C=C(Br)C(=O)C(Br)=C2)C1 [Compound 29, 7,9-Dibromo-8-oxo-N-(pyridin-2-yl)-1-oxa-2-azaspiro[4.5]deca-2,6,9-triene-3-carboxamide] | 2.4 µM | 101% | 2.4 (0.4) | 5.8 µM |  |
| N=C(N)NCCCCNC(=O)C1=NOC2(C=CC(=O)C=C2)C1 [Compound 11, N-(4-Guanidinobutyl)-8-oxo-1-oxa-2-azaspiro[4.5]deca-2,6,9-triene-3-carboxamide] |  |  |  |  | less than 25% and −8.2% |
| O=C1C=CC2(C=C1)CC(C(=O)NNC(=O)CN1CCOCC1)=NO2 [Compound 17, N’-(2-Morpholinoacetyl)-8-oxo-1-oxa-2-azaspiro[4.5]deca-2,6,9-triene-3-carbohydrazide] |  | < 25% |  |  | 20.8% |
| 7,9-Dibromo-8-oxo-N’-picolinoyl-1-oxa-2-azaspiro[4.5]deca-2,6,9-triene-3-carbohydrazide [Compound 39] |  |  |  |  | 75.2% |
